Article PMC9481570, “A small molecule antagonist of SMN disrupts the interaction between SMN and RNAP II” (Nature Communications, 2022)

System: R-loops at ACTB gene locus
Test: R-loop DNA immunoprecipitation with GFP-HB along ACTB locus
Assay type: cell-based, human
Conditions: for GFP-HB DNA immunoprecipitation qPCR, ACTB position 332 / GFP-HB DNA immunoprecipitation qPCR, ACTB position 1671 / GFP-HB DNA immunoprecipitation qPCR, ACTB position 3560 / GFP-HB DNA immunoprecipitation qPCR, ACTB position 3752 / GFP-HB DNA immunoprecipitation qPCR, ACTB position 4657 / GFP-HB DNA immunoprecipitation qPCR, ACTB position 5590 / GFP-HB DNA immunoprecipitation qPCR, ACTB position -72: HEK293 cells transfected with GFP-HB; for R-loop signals at the 3′-end of the ACTB gene: HEK293 cells, GFP-HB DNA immunoprecipitation
From the text: Fig. 4 Effects of SMN antagonists on the interaction between SMN and RNAP II, RNAP II pause, and R-loop accumulation. a SMN antagonists disrupt binding of SMN to RNAP II. Data shown are representative of three independent experiments. b Illustration of ACTB gene and the qPCR amplification positions. c SMN antagonists reduce SMN association at ACTB gene locus. Quantification of SMN qPCR data from ChIP experiments using SMN antibody at the indicated ACTB amplification positions. The SMN levels in DMSO controls were set as 100%. d SMN antagonists lead to RNAP II pause. Quantification of RNAP II qPCR data from ChIP experiments using POLR2A antibody at the indicated ACTB amplification positions. e SMN knockout (KO) leads to R-loop accumulation. Representative single-plane images of Z-stacks of the R-loop levels in scramble vs SMN KO cells of three independent experiments. Scale bar: 5 μm. f Global nuclear R-loop accumulation in SMN KO cells. g SMN antagonists cause global nuclear R-loop accumulation. h SMN antagonists lead to R-loop accumulation at ACTB gene locus. Quantified DNA immunoprecipitation using primers along ACTB locus by using GFP antibody, in cell extracts that were transfected with GFP-RNase H1 R-loop-binding domain (GFP-HB) fusion construct for R-loop detection. a–h HEK293 cells; c, d, h data were presented as the mean ± S.E.M. of three independent experiments (*P < 0.05, **P < 0.01, ***P < 0.001 for the two-tailed Student’s t-test); f, g scatter plots representing data from single-cell and R-loop immunofluorescence analysis (number of cells = 377, 332, 295, 262, 265 for scramble, SMN KO, DMSO, Cmpd 1, Cmpd 2 condition, respectively; Mean ± Quartiles; ****P < 0.0001 for the two-tailed Mann–Whitney test; a.u.: arbitrary units). Source data are provided as a Source Data file.
HEK293 cells (ATCC, CRL-1573) were grown in DMEM (SLRI media facility) plus 10% FBS (Sigma, F1051). For analysis of SMN chemical antagonists, HEK293 cells were treated with DMSO or a series of concentrations (0, 2, 6, 10, 20, 30, 40, and 80 μM) of compound 1, compound 2 or negative compound 15 for 72 h. CRISPR-mediated SMN1 gene knockout was performed according to our previous study. Briefly, 2 μg of CRISPR/Cas9 plasmid (pCMV-Cas9-GFP), which expresses scrambled guide RNA, or guide RNA that targets the SMN1 gene exon1 (gRNA target sequence: […]) or exon3 (gRNA target sequence: […]) was transfected into HEK293 cells. Cells were sorted by BD FACSAria flow cytometry at Donnelly Center, University of Toronto 24 h after transfection, and single GFP-positive cells were seeded into a 48-well plate. The expression levels of SMN in each clone were detected by immunofluorescence. The transfection of GFP-RNase H1 R-loop-binding domain (GFP-HB) for R-loop detection into HEK293 cells was performed with the FuGENE Transfection reagent (Roche, E269A).
ChIP was performed using the EZ-ChIP™ A - Chromatin Immunoprecipitation Kit (Millipore, 17-371) according to the manufacturer’s instruction. Antibodies were used with a range of 1–2 μg, and IgG (Millipore, polyclonal antibody, 12-370) was used as a background control. After immunoprecipitation, genomic DNA was de-crosslinked in ChIP elution buffer containing 5 M NaCl at 65 °C overnight and purified with the Qiaex II kit (Qiagen, 20021), and eluted in water for PCR amplification. Immunoprecipitated and input DNAs were used as templates for qPCR. The qPCR primer sequences for ACTB gene are the same as described earlier[9] and shown in the Supplementary Table 2. For analysis of SMN chemical antagonists, HEK293 cells were treated with DMSO, compound 1 or compound 2 (a final concentration of 20 μM) for 72 h, before processing for ChIP.

Row | SMILES | GFP-HB DNA immunoprecipitation qPCR, ACTB position 332 | GFP-HB DNA immunoprecipitation qPCR, ACTB position 1671 | GFP-HB DNA immunoprecipitation qPCR, ACTB position 3560 | GFP-HB DNA immunoprecipitation qPCR, ACTB position 3752 | GFP-HB DNA immunoprecipitation qPCR, ACTB position 4657 | GFP-HB DNA immunoprecipitation qPCR, ACTB position 5590 | GFP-HB DNA immunoprecipitation qPCR, ACTB position -72 | R-loop signals at the 3′-end of the ACTB gene
1 | Cn1c2c(c(=N)c3c1CCC3)CCC2 [Compound 1, 4-methyl-2,3,4,5,6,7-hexahydrodicyclopenta[b,e]pyridin-8(1H)-imine] | 0.009604 | 0.01285 | 0.03192 | 0.04162 | 0.02409 | 0.01303 | 0.00357 | significantly increased
2 | CCCn1c2c(c(=N)c3c1CCC3)CCC2 [Compound 2, 4-propyl-2,3,4,5,6,7-hexahydrodicyclopenta[b,e]pyridin-8(1H)-imine] | 0.008454 | 0.01239 | 0.02386 | 0.02558 | 0.01308 | 0.01171 | 0.004979 | significantly increased
